Measured values: article PMC8805257, “Molecular and functional characterization of a conserved odorant receptor from Aedes albopictus” (Parasites & Vectors, 2022)

Key:
Type in all cases: cell-based
[1] = biological target: T1, AalbOr11 (odorant receptor 11) (Aedes albopictus, UniProt A0ABM1ZVX3); experiment: two-electrode voltage clamp in Xenopus oocytes co-expressing AalbOr11/AalbOrco, concentration-response
T1 construct: with AalbOrco
T1 sequence (A0ABM1ZVX3 1-420): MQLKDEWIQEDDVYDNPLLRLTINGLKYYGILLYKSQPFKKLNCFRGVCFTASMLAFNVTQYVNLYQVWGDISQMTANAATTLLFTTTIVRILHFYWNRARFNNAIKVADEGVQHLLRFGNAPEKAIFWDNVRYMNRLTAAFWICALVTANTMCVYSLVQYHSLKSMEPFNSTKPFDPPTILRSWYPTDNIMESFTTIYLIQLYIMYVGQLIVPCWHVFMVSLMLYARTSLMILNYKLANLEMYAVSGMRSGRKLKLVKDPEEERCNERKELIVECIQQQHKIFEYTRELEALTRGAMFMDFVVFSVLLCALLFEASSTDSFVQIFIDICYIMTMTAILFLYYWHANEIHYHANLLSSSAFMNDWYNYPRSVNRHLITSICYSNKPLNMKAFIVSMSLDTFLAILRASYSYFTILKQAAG
T1 sequence (W8NXX6 1-479 partner): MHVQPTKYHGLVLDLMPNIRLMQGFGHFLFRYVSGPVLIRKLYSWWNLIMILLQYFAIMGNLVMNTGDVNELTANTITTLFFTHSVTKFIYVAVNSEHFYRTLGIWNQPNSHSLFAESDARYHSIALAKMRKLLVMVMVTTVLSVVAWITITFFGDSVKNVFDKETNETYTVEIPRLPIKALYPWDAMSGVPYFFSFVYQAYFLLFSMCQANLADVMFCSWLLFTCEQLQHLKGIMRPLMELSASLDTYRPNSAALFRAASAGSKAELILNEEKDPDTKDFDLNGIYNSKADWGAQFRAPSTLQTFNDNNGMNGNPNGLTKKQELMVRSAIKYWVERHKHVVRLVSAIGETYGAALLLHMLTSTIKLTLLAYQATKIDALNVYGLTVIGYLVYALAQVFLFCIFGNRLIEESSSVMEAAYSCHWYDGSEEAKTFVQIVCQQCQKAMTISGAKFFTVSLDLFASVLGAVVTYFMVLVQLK

[2] = biological target: T1, AalbOr11 (odorant receptor 11); experiment: two-electrode voltage clamp in Xenopus oocytes; current […] nA at […]
[3] = biological target: T1, AalbOr11 (odorant receptor 11); experiment: two-electrode voltage clamp in Xenopus oocytes co-expressing AalbOr11/AalbOrco, concentration-response; remark: listed apart in the source
[4] = biological target: T1, AalbOr11 (odorant receptor 11); experiment: two-electrode voltage clamp in Xenopus oocytes, screen at […]

SMILES	two-electrode voltage clamp in Xenopus oocytes; current >300 nA at 10^-4 M [2]	other results
CC(=O)c1cccs1 [2-acetylthiophene]	–	two-electrode voltage clamp in Xenopus oocytes co-expressing AalbOr11/AalbOrco, [1]: indole was replaced with 2-acetylthiophene to conduct concentration gradient assay
CCc1ccccc1O [2-ethylphenol]	five aromatics 3-methylindole, 2-ethyltoluene, indole, acetophenone, and 2-ethylphenol	–
CCc1ccccc1C [2-ethyltoluene]	–	EC50 [3]: 62.2 µM
Cc1c[nH]c2ccccc12 [3-methylindole]	five aromatics 3-methylindole, 2-ethyltoluene, indole, acetophenone, and 2-ethylphenol	–
CC1(C)C(=O)[C@@]2(C)CC[C@@H]1C2 [(+)-fenchone]	–	EC50 [3]: 139 µM
CC1(C)C(=O)[C@]2(C)CC[C@H]1C2 [(−)-fenchone]	The seven strong ligands comprised two terpenes (+)-fenchone and (−)-fenchone	–
CC(=O)c1ccccc1 [acetophenone]	five aromatics 3-methylindole, 2-ethyltoluene, indole, acetophenone, and 2-ethylphenol	–
C=CCc1ccc(O)c(OC)c1 [eugenol]	–	two-electrode voltage clamp in Xenopus oocytes, screen at 10^-4 M [4]: except eugenol, which could activate AalbOr11 but could not activate AgOr11
c1ccc2[nH]ccc2c1 [indole]	five aromatics 3-methylindole, 2-ethyltoluene, indole, acetophenone, and 2-ethylphenol	–
COC(=O)c1ccccc1C [methyl-2-methylbenzoate]	–	two-electrode voltage clamp in Xenopus oocytes, screen at 10^-4 M [4]: AalbOr11 was sensitive to human odor, such as indole, 3-methylindole, and methyl-2-methylbenzoate
